Read-outs that look alike come from different tables or passages of the source.
Experiments:
[1] = In vitro metabolic stability in human plasma; assay type: in vitro ADME; conditions: 37°C, 72 ± 2 h, n = 4
Protocol: Metabolic stability in vitro was determined through a procedure published by Linder et al. that was slightly modified ([16]). Immediately after labeling, 200 μL of human plasma were added and the mixture was incubated at 37°C for 72 ± 2 h. Proteins were precipitated by treatment with ice-cold EtOH (150 μL) and ice-cold MeCN (450 μL), followed by centrifugation (13,000 rpm, 20 min). The supernatants were decanted and further centrifuged (13,000 rpm, 10 min) using a Costar Spin-X (Corning) centrifuge tube filter (0.45 μm). The filtrated plasma samples were analyzed using radio–RP-HPLC.
(§1) FIGURE 2. Preclinical data of ^nat/177Lu-RM2 (red), ^nat/177Lu-NeoBOMB1 (gray), ^nat/177Lu-AMTG (green), and ^nat/177Lu-AMTG2 (blue). (A) Affinity data on PC-3 and T-47D cells (1.5 × 10^5 cells/mL/well) using 3-^125I-D-Tyr^6-MJ9 (0.2 nM/well) as radiolabeled reference (2 h, room temperature, Hanks’ balanced salt solution plus 1% bovine serum albumin [v/v]). (B) GRPR-mediated internalization (0.25 pmol/well) on PC-3 cells as percentage of applied activity (incubation at 37°C for 1 h, Dulbecco modified Eagle medium/F-12 plus 5% bovine serum albumin [v/v], 1.5 × 10^5 cells/mL/well). Data were corrected for nonspecific binding (10^−3 M ^natLu-RM2). (C) Lipophilicity at pH 7.4 (logD7.4). (D) Metabolic stability in vitro in human plasma (left) (37°C, 72 ± 2 h; n = 4), and metabolic stability in vivo in murine plasma (middle) and murine urine (right) at 30 min after injection (n = 3). Data are expressed as mean ± SD.

[2] = In vivo metabolic stability in murine plasma and urine; parameters: species or system CB17-SCID mice; conditions: 30 min after injection, n = 3
Protocol: Approximately 30–40 MBq (1 nmol, 150 μL) of the ^177Lu-labeled compounds were injected into the tail vein of anesthetized CB17-SCID mice (n = 3). After euthanasia at 30 min after injection, blood and urine samples were collected. Blood proteins were precipitated by treatment with ice-cold MeCN (v/v = 1/1), followed by centrifugation (13,000 rpm, 20 min). The supernatants were decanted and further centrifuged (13,000 rpm, 10 min) using a Costar Spin-X centrifuge tube filter (0.45 μm). The filtrated plasma samples and the urine samples were analyzed using radio–RP-HPLC.
as §1

[3] = Biodistribution in PC-3 tumor-bearing CB17-SCID mice; assay type: in vivo; conditions: 24 h after injection; for tissue uptake at 24 h: CB17-SCID, mouse, intravenous, total radioactivity
Protocol: A detailed description of tumor inoculation is provided in the supplemental materials. Approximately 2–5 MBq (100 pmol, 150 μL) of the ^177Lu-labeled GRPR ligands were injected into the tail vein of anesthetized (2% isoflurane) PC-3 tumor–bearing mice (biodistribution, n = 4; imaging, n = 1).
For biodistribution studies, organs were removed, weighed, and measured in a γ-counter (Perkin Elmer) after euthanasia at 24 h after injection.
For all competition studies, 3.62 mg/kg (40 nmol) of ^natLu-RM2 (10^−3 M in phosphate-buffered saline) were coadministered.

[4] = adrenal, 100 pmol, 100 pmol, n = 4, read-out: Biodistribution, Adrenal
[5] = adrenal, 3.62 mg/kg, coinjection of natLu-RM2 3.62 mg/kg, n = 3, read-out: Biodistribution, Adrenal, competition study
[6] = blood, 100 pmol, 100 pmol, n = 4, read-out: Biodistribution, Blood
[7] = blood, 3.62 mg/kg, coinjection of natLu-RM2 3.62 mg/kg, n = 3, read-out: Biodistribution, Blood, competition study
[8] = bone, 100 pmol, 100 pmol, n = 4, read-out: Biodistribution, Bone
[9] = bone, 3.62 mg/kg, coinjection of natLu-RM2 3.62 mg/kg, n = 3, read-out: Biodistribution, Bone, competition study
[10] = heart, 100 pmol, 100 pmol, n = 4, read-out: Biodistribution, Heart
[11] = heart, 3.62 mg/kg, coinjection of natLu-RM2 3.62 mg/kg, n = 3, read-out: Biodistribution, Heart, competition study
[12] = intestine, 100 pmol, 100 pmol, n = 4, read-out: Biodistribution, Intestine
[13] = intestine, 3.62 mg/kg, coinjection of natLu-RM2 3.62 mg/kg, n = 3, read-out: Biodistribution, Intestine, competition study
[14] = kidney, 100 pmol, 100 pmol, n = 4, read-out: Biodistribution, Kidney
[15] = kidney, 3.62 mg/kg, coinjection of natLu-RM2 3.62 mg/kg, n = 3, read-out: Biodistribution, Kidney, competition study
[16] = liver, 100 pmol, 100 pmol, n = 4, read-out: Biodistribution, Liver
[17] = liver, 3.62 mg/kg, coinjection of natLu-RM2 3.62 mg/kg, n = 3, read-out: Biodistribution, Liver, competition study
[18] = lung, 100 pmol, 100 pmol, n = 4, read-out: Biodistribution, Lung
[19] = lung, 3.62 mg/kg, coinjection of natLu-RM2 3.62 mg/kg, n = 3, read-out: Biodistribution, Lung, competition study
[20] = muscle, 100 pmol, 100 pmol, n = 4, read-out: Biodistribution, Muscle
[21] = muscle, 3.62 mg/kg, coinjection of natLu-RM2 3.62 mg/kg, n = 3, read-out: Biodistribution, Muscle, competition study
[22] = pancreas, 100 pmol, 100 pmol, n = 4, read-out: Biodistribution, Pancreas
[23] = pancreas, 3.62 mg/kg, coinjection of natLu-RM2 3.62 mg/kg, n = 3, read-out: Biodistribution, Pancreas, competition study
[24] = spleen, 100 pmol, 100 pmol, n = 4, read-out: Biodistribution, Spleen
[25] = spleen, 3.62 mg/kg, coinjection of natLu-RM2 3.62 mg/kg, n = 3, read-out: Biodistribution, Spleen, competition study
[26] = stomach, 100 pmol, 100 pmol, n = 4, read-out: Biodistribution, Stomach
[27] = stomach, 3.62 mg/kg, coinjection of natLu-RM2 3.62 mg/kg, n = 3, read-out: Biodistribution, Stomach, competition study
[28] = tumor (PC-3), 100 pmol, PC-3 tumor, 100 pmol, n = 4, read-out: Biodistribution, Tumor
[29] = tumor (PC-3), 3.62 mg/kg, PC-3 tumor, coinjection of natLu-RM2 3.62 mg/kg, n = 3, read-out: Biodistribution, Tumor, competition study

Row | SMILES | Intact compound in human plasma in vitro [1] | Intact tracer in murine plasma in vivo [2] | Intact tracer in murine urine in vivo [2] | tissue uptake at 24 h [3, 4] | tissue uptake at 24 h [3, 5] | tissue uptake at 24 h [3, 6] | tissue uptake at 24 h [3, 7] | tissue uptake at 24 h [3, 8] | tissue uptake at 24 h [3, 9] | tissue uptake at 24 h [3, 10] | tissue uptake at 24 h [3, 11] | tissue uptake at 24 h [3, 12] | tissue uptake at 24 h [3, 13] | tissue uptake at 24 h [3, 14] | tissue uptake at 24 h [3, 15] | tissue uptake at 24 h [3, 16] | tissue uptake at 24 h [3, 17] | tissue uptake at 24 h [3, 18] | tissue uptake at 24 h [3, 19] | tissue uptake at 24 h [3, 20] | also measured
1 | CC(C)C[C@H](NC(=O)C[C@H](O)[C@H](CC(C)C)NC(=O)[C@H](Cc1c[nH]cn1)NC(=O)CNC(=O)[C@@H](NC(=O)[C@H](C)NC(=O)[C@](C)(Cc1c[nH]c2ccccc12)NC(=O)[C@H](CCC(N)=O)NC(=O)[C@@H](Cc1ccccc1)NC(=O)CN1CCC(NC(=O)CCC(C(=O)O)N2CCN(CC(=O)O)CCN(CC(=O)O)CCN(CC(=O)O)CC2)CC1)C(C)C)C(N)=O (stereo partly drawn) [^177Lu-AMTG2, ^177Lu-DOTAGA-α-Me-L-Trp^8-RM2, metal not drawn] | 66.2% ± 5.1% | 77.6% ± 3.1% | 61.6% ± 1.6% | 0.26 ± 0.14 %ID/g | 0.03 ± 0.02 %ID/g | 0.011 %ID/g | 0.002 ± 0.001 %ID/g | 0.22 ± 0.05 %ID/g | 0.02 ± 0.01 %ID/g | 0.03 ± 0.02 %ID/g | 0.02 ± 0.01 %ID/g | 0.3 ± 0.04 %ID/g | 0.34 ± 0.35 %ID/g | 1.2 to 1.9 %ID/g | 1.63 ± 0.44 %ID/g | 0.32 ± 0.14 %ID/g | 0.74 ± 0.44 %ID/g | 0.05 ± 0.01 %ID/g | 1.18 ± 1.49 %ID/g | 0.003 ± 0.003 %ID/g | tissue uptake at 24 h [3, 21]: 0.003 ± 0.002 %ID/g; tissue uptake at 24 h [3, 22]: 0.95 ± 0.14 %ID/g; tissue uptake at 24 h [3, 23]: 0.07 ± 0.01 %ID/g; tissue uptake at 24 h [3, 24]: 0.15 ± 0.07 %ID/g; tissue uptake at 24 h [3, 25]: 1.06 ± 1.08 %ID/g; tissue uptake at 24 h [3, 26]: 0.12 ± 0.03 %ID/g; tissue uptake at 24 h [3, 27]: 0.04 ± 0.01 %ID/g; tissue uptake at 24 h [3, 28]: 7.97 ± 1.34 %ID/g; tissue uptake at 24 h [3, 29]: 0.36 ± 0.25 %ID/g
2 | CC(C)C[C@H](NC(=O)C[C@H](O)[C@H](CC(C)C)NC(=O)[C@H](Cc1c[nH]cn1)NC(=O)CNC(=O)[C@@H](NC(=O)[C@H](C)NC(=O)[C@](C)(Cc1c[nH]c2ccccc12)NC(=O)[C@H](CCC(N)=O)NC(=O)[C@@H](Cc1ccccc1)NC(=O)CN1CCC(NC(=O)CN2CCN(CC(=O)O)CCN(CC(=O)O)CCN(CC(=O)O)CC2)CC1)C(C)C)C(N)=O [^177Lu-AMTG, ^177Lu-α-Me-L-Trp^8-RM2, metal not drawn] | 77.7% ± 8.7% | 92.9% ± 0.7% | 68.2% ± 3.1% | 0.46 ± 0.22 %ID/g | 0.09 ± 0.07 %ID/g | 0.004 ± 0.001 %ID/g | 0.003 %ID/g | 0.05 ± 0.02 %ID/g | 0.05 ± 0.03 %ID/g | 0.02 %ID/g | 0.02 ± 0.01 %ID/g | 0.2 ± 0.1 %ID/g | 0.27 ± 0.21 %ID/g | 1.2 to 1.9 %ID/g | 1.17 ± 0.26 %ID/g | 0.14 ± 0.03 %ID/g | 1.4 ± 0.86 %ID/g | 0.04 ± 0.01 %ID/g | 0.27 ± 0.15 %ID/g | 0.005 ± 0.003 %ID/g | Higher activity level in PC-3 tumor than for 177Lu-RM2 [3]: 35%; tissue uptake at 24 h [3, 21]: 0.003 ± 0.002 %ID/g; tissue uptake at 24 h [3, 22]: 0.56 ± 0.3 %ID/g; tissue uptake at 24 h [3, 23]: 0.05 ± 0.03 %ID/g; tissue uptake at 24 h [3, 24]: 0.1 ± 0.02 %ID/g; tissue uptake at 24 h [3, 25]: 2.97 ± 2.01 %ID/g; tissue uptake at 24 h [3, 26]: 0.1 ± 0.04 %ID/g; tissue uptake at 24 h [3, 27]: 0.04 ± 0.02 %ID/g; tissue uptake at 24 h [3, 28]: 11.5 %ID/g; tissue uptake at 24 h [3, 29]: 0.33 ± 0.2 %ID/g

— paper PMC9454457 (Journal of Nuclear Medicine, 2022)
